# From patent publication EP0470144B1, “BETA-HYDROXAMATE D-ASPARTIC ACID FOR TREATMENT OF VIRAL INFECTIONS AND TUMOURS” (priority 1989, dated 1990)
# What was measured:
# [1] = target: T1, transcriptase inverse (RT) du FLV (Friend murine leukemia virus, UniProt P26810); assay: Reverse transcriptase (RT) activity of highly purified FLV, poly A-oligo dT substrate; format: biochemical; settings: at concentrations giving the anti-retroviral effect in cell culture
# T1 construct: comme source de RT une préparation de FLV hautement purifié; from tissue; host or cells: highly purified FLV virus preparation (virions)
# Text: La transcriptase inverse étant la cible de divers agents anti-rétroviraux, il est intéressant de tester l'effet du DAH sur l'activité transcriptase inverse (RT) du FLV. Cet essai a été effectué en utilisant comme source de RT une préparation de FLV hautement purifié, et comme substrat du poly A-oligo dT. Les substrats ont été introduits dans le milieu réactionnel dans l'ordre suivant : DAH aux concentrations désirées, virus purifié, polyA-oligo dT, dTTP + ³HdTTP.
# [2] = system: lymphocytes infectés par le virus du SIDA; assay: Growth and cell mortality of HIV-infected lymphocytes; format: cell-based; settings: 0,5-2 mM DAH; compared with uninfected lymphocytes
# Text: (§1) Cette inhibition est dose-dépendante. Les essais ont d'abord porté sur des lymphoytes de donneurs sains (Figures 1 et 2). On a pu mettre en évidence cette activité sur deux modèles de réplication du HIV : a) lymphocytes normaux infectés par le virus purifié et b) coculture des lymphocytes des malades du SIDA et de lymphocytes normaux. On a mesuré l'activité transcriptase inverse pendant 22 jours dans le surnageant de cultures cellulaires comme critère de prolifération virale. Le traitement avec le DAH a duré 72 heures de J₀ à J₃ de la manipulation (Figures 3, 4 et 5). […] Par contre, le DAH s'est montré plus toxique vis-à-vis des lymphocytes infectés par le virus du SIDA (Figures 6 et 7).
# Effet du DAH sur le taux de croissance de lymphocytes infectés.
# (●) absence de DAH (o) concentration en DAH = 0,5 mM (□) concentration en DAH = 1 mM (△) concentration en DAH = 1,5 mM (◇) concentration en DAH = 2 mM • . En abscisses : temps de culture (en jours) • . En ordonnées : taux de croissance.
# Effet du DAH sur la mortalité cellulaire de lymphocytes infectés.
# (●) absence de DAH (o) concentration en DAH = 0,5 mM (□) concentration en DAH = 1 mM (△) concentration en DAH = 1,5 mM (◇) concentration en DAH = 2 mM • . En abscisses : temps de culture (en jours) • . En ordonnées : proportion de cellules mortes (en %).
# leucémie L1210 = assay: Antitumour activity in the L1210 leukaemia model, survival; format: in vivo, souris B6D2F1/J; settings: for Nombre d'animaux survivants: at 30 days
# Text: L'activité antitumorale du DAH et du LAH a été étudiée sur le modèle de leucémie L1210. Les cellules leucémiques L1210 sont maintenues par passages intrapéritonéaux dans la souris B6D2F1/J mâle. […] La durée d'observation est de 30 jours.
# HIV = HIV replication in lymphocyte cultures (infected with purified virus, or coculture of AIDS patients' and normal lymphocytes), reverse transcriptase activity in supernatant; format: cell-based; settings: DAH treatment 72 h (J0 to J3), RT followed 22 days; dose-dependent; 0,5-2 mM
# Text: as §1
# Effet du traitement par le DAH durant trois jours sur la production de transcriptase inverse virale par une coculture de lymphocytes des malades du SIDA et de lymphocytes normaux.
# (●) absence de DAH (témoin) (o) concentration en DAH = 1 mM (□) concentration en DAH = 1,5 mM • . En abscisses : temps de croissance des cultures après inoculation du DAH (en jours) • . En ordonnées : activité transcriptase inverse (en CPM/million de cellules)
# Effet du traitement par le DAH durant trois jours, sur la production de transcriptase inverse virale d'une culture de lymphocytes infectés par du virus purifié. […]
# leucémie P388 = assay: Antitumour activity in the P388 leukaemia model, survival; format: in vivo, souris B6D2F1; settings: for Nombre d'animaux survivants: at 30 days
# Text: L'activité antitumorale du DAH a été aussi étudiée sur deux autres modèles murins : le lymphome L5178Y et la leucémie P388.
# Les cellules de la leucémie P388 sont maintenues par passage intrapéritonéaux chez la souris DBA/2 et injectées, pour les essais, à la dose de […] par souris sur la souris B6D2F1.
# [3] = Stability of DAH versus pH and temperature over one month (colorimetric assay of the hydroxamate function); format: physicochemical; settings: for Pourcentage de dégradation du DAH sur une période de 30 jours: 30 days
# Experimental: La fonction hydroxamate du DAH est mise en évidence par un complexe Fe3+-hydroxamate qui donne une coloration rouge-violet, quantifiée par méthode colorimétrique à 550 nm, à l'aide d'un spectrophotomètre de type Beckman DU 70.
# La stabilité du DAH en fonction du pH et de la température a été déterminée sur une durée d'un mois par dosage colorimétrique spécifique de la fonction hydroxamate. Les résultats du tableau ci-après montrent que dans l'eau le DAH est stable jusqu'à une température de 50°C. Une dégradation significative du produit n'est constatée que dans des conditions extrêmes de pH, comme l'illustre le Tableau 1 ci-après. Tableau 1
structure (smiles),measurement,setting,value
"N[C@@H](CC(=O)NO)C(=O)O [DAH, D-acide aspartique β-hydroxamate]",effet sur l'activité RT,[1],aucun effet
same,toxicité vis-à-vis des lymphocytes infectés par le virus du SIDA,[2],plus toxique
same,T/Cx100,"leucémie L1210; 0,5 g/kg x4/j, days 1,2,3",113%
same,Nombre d'animaux survivants,"leucémie L1210; 0,5 g/kg x4/j, days 1,2,3",0/5
same,T/Cx100,"leucémie L1210; 1,5 g/kg x4/j, days 1,2,3",276%
same,T/Cx100,"leucémie L1210; 1,5 g/kg x4/j, days 1,2,3,4",347%
same,Nombre d'animaux survivants,"leucémie L1210; 1,5 g/kg x4/j, days 1,2,3,4",3/5
same,Nombre d'animaux survivants,"leucémie L1210; 1,5 g/kg x4/j, days 1,2,3",0/5
same,T/Cx100,"leucémie L1210; 1 g/kg x3/j, days 1-10",347%
same,Nombre d'animaux survivants,"leucémie L1210; 1 g/kg x3/j, days 1-10",3/5
same,T/Cx100,"leucémie L1210; 1 g/kg x4/j, days 1,2,3",171%
same,Nombre d'animaux survivants,"leucémie L1210; 1 g/kg x4/j, days 1,2,3",0/5
same,survie des animaux traités,"leucémie L1210; 1 g/kg, 4 times a day for 3 days",prolongation très significative de la survie
same,activité antitumorale,"leucémie L1210; dose of 1 g/kg or more, 3 or 4 times a day",activité antitumorale significative
same,multiplication virale du HIV (activité transcriptase inverse),HIV,inhibe de manière totale
same,T/Cx100,"leucémie P388; 1,5 g/kg x4/j, days 1,2,3",155%
same,T/Cx100,"leucémie P388; 1,5 g/kg x 4/j, days 1,2,3,4,5",190%
same,Nombre d'animaux survivants,"leucémie P388; 1,5 g/kg x 4/j, days 1,2,3,4,5",0/5
same,Nombre d'animaux survivants,"leucémie P388; 1,5 g/kg x4/j, days 1,2,3",0/5
same,Pourcentage de dégradation du DAH sur une période de 30 jours,"[3]; HCl 0,1 N, + 4 °C",42%
same,Pourcentage de dégradation du DAH sur une période de 30 jours,"[3]; HCl 0,1 N, + 25 °C",78%
same,Pourcentage de dégradation du DAH sur une période de 30 jours,"[3]; HCl 0,1 N, + 50 °C",100%
same,Pourcentage de dégradation du DAH sur une période de 30 jours,"[3]; H₂O, + 4 °C",0%
same,Pourcentage de dégradation du DAH sur une période de 30 jours,"[3]; H₂O, + 25 °C",0%
same,Pourcentage de dégradation du DAH sur une période de 30 jours,"[3]; H₂O, + 50 °C",0%
same,Pourcentage de dégradation du DAH sur une période de 30 jours,"[3]; NaOH 0,1 N, + 4 °C",4%
same,Pourcentage de dégradation du DAH sur une période de 30 jours,"[3]; NaOH 0,1 N, + 25 °C",36%
same,Pourcentage de dégradation du DAH sur une période de 30 jours,"[3]; NaOH 0,1 N, + 50 °C",100%
same,Stabilité du DAH,"[3]; in water, up to 50°C, one month",stable
